Source: patent publication US20240415804A1, “METHOD OF TREATING PANCREATIC CANCER” (University of South Florida, priority 2022, published 2024)

What was measured:
[1] = system: MDSC and macrophage subsets in the BM; assay: Flow cytometry of MDSC and macrophage subsets in the BM of KC-HPC mice; type: in vivo, mouse; conditions: API 25 mg/kg IP
Source text: All female C57BL/6 mice (6-8 weeks of age) described in this study were purchased from Envigo (Indianapolis, IN, USA) and were acclimatize for one week in a pathogen-free animal facility (University of South Florida (USF) vivarium) before injections with PC cells. To generate heterotopic pancreatic cancer (HPC) models, mice were subcutaneously injected with 1.5×10^5 murine Panc02 (HPC mice) or 5×10^6 murine UN-KC-6141 cells (KC-HPC mice), in sterile 1× phosphate buffer saline (PBS), in the lower ventral abdomen, while control (CTRL) mice received sterile 1×PBS. Once tumors where palpable, API (25 mg/kg, 100 μL volume) treatments (HPC-API and KC-HPC-API), via intraperitoneal (IP) injections, were started while CTRL, HPC and KC-HPC mice received sterile PBS (vehicle) three times per week until the end of the study^12, 55. The HPC models were euthanized 21-28 days post-injection, while the KC-HPC models were euthanized 16-17 days post-injection. The femur and tibia were cut at the pelvic-hip joint and muscle was removed. The femurs and tibias were cut at the ends and flushed with a 30-gauge needle and 10 cc syringe filled with completed RPMI media until bone was white onto a petri dish. Pelleted bone marrow (BM) cells were treated with Red Blood Cell (RBC) lysis buffer (eBioscience, Waltham, MA, USA), according to the manufacturer's instructions, and then filtered through a […] nylon mesh cell strainer in 1×PBS. All pancreatic tumors were manually cut into ˜1-2 mm^3 fragments with a sterile razor blade and then enzymatically digested with Collagenase, type IV (Sigma-Aldrich), DNase, type IV (Sigma-Aldrich) and Hyaluronidase, Type V (Sigma-Aldrich) in Hank's Balanced Salt Solution for 1 h, spun down and washed as described in previous studies^61. Digested pancreatic tumor samples were treated with RBC lysis buffer and then filtered through a […] nylon mesh cell strainer in 1×PBS. Bone marrow and digested pancreatic tumor single cell suspensions were counted with a hemocytometer and then resuspended in 3% FBS/PBS. BM and digested pancreatic tumor cells (1×10^6) were Fc Blocked (anti-mouse CD16/CD32) and then surface stained for 30 min on ice protected from light with fluorescent anti-mouse antibodies including, CD11b-APC, Ly6C-PE/Cy7, Ly6G-PerCP, F4/80-BV650, MHC—II-BV605, CD206-FITC and CD40-PE/Cy5 along with isotype control antibodies (Biolegend, San Diego, CA, USA) to detect MDSC and macrophage subsets. Digested pancreatic tumor cells (1×10^6) were also Fc Blocked and then surface stained with fluorescent anti-mouse antibodies including CD3-FITC, CD8-PercP/Cy5.5, CD4-APC/Cy7, and CD40L-APC along with isotype control antibodies (Biolegend) to detect CD8^+ T cells. Subsequently, all samples were fixed with 2% paraformaldehyde for 15 min on ice protected from light. Acquisition of samples was performed using a flow cytometer BD LSRII (BD Biosciences Immunocytometry Systems). Data analysis was performed using FlowJo v10.8 software (TreeStar Inc.).

[2] = system: PC-bearing mice; conditions: cited from earlier work
[3] = PC mouse model treated with API, earlier report (ref 12)
[4] = PC-bearing mice, previous results (ref 12)

SMILES: O=c1cc(-c2ccc(O)cc2)oc2cc(O)cc(O)c12 [API, 40,5,7-Trihydroxyflavone, 5,7-Dihydroxy-2-(4-hydroxyphenyl)-4-benzopyrone]
- G-MDSC absolute cell numbers in BM ([1]; vs KC-HPC mice): significantly lowered
- M1 macrophage percentages in BM ([1]; vs KC-HPC mice): significantly increased
- M1 macrophages absolute cell numbers in BM ([1]; vs KC-HPC mice): no significant changes
- M2 macrophage percentages in BM ([1]; vs KC-HPC mice): decreased
- M2 macrophages absolute cell numbers in BM ([1]; vs KC-HPC mice): no significant changes
- M-MDSC absolute cell numbers in BM ([1]; vs KC-HPC mice): significantly lowered
- proportions of G-MDSCs in BM ([1]; vs vehicle treated KC-HPC mice): significantly reduced
- proportions of M-MDSCs in BM ([1]; vs vehicle treated KC-HPC mice): without any significant change
- tumor weights ([2]; PC mice, previous report (refs 12, 55)): decreases
- intratumoral Treg percentages [2, 3]: significant reduction
- splenic Treg percentages [2, 3]: significant reduction
- IFN-γ production from intratumoral CD8+ T cells [2, 4]: increases
- granzyme B [2, 4]: increases
- perforin [2, 4]: increases
